In ChEMBL document CHEMBL1156897, “New potential antitumor compounds from the plant Aristolochia manshuriensis as inhibitors of the CDK2 enzyme” (Bioorg Med Chem Lett, 2010):

What was measured:
[1] = target: Cyclin-dependent kinase 2 (Homo sapiens, UniProt P24941); assay: Inhibition of CDK2
[2] = Inhibition of MAPK
[3] = target: Cyclin-dependent kinase 4 (Homo sapiens, UniProt P11802); assay: Inhibition of CDK4
[4] = target: Cyclin-dependent kinase 1 (Homo sapiens, UniProt P06493); assay: Inhibition of CDC2
Chain of Cyclin-dependent kinase 1 (P06493 whole entry): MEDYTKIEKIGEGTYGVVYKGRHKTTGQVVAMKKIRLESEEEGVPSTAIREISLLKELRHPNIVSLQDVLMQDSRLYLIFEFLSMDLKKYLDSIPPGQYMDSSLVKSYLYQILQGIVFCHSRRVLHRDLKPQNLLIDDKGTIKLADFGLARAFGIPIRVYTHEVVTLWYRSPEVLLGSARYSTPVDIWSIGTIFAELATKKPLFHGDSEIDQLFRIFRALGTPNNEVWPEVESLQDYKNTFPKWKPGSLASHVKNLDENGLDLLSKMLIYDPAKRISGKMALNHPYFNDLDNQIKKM

Chain of Cyclin-dependent kinase 4 (P11802 whole entry): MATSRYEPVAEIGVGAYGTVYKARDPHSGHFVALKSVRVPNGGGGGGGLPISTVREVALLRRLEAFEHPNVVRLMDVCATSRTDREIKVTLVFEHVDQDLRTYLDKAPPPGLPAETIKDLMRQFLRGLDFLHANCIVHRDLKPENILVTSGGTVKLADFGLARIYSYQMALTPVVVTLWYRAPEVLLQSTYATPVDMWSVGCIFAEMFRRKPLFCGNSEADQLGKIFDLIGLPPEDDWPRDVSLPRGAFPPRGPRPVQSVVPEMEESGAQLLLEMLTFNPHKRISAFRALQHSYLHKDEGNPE

SMILES | IC50 [1] [nM] | IC50 [2] [nM] | IC50 [3] [nM] | IC50 [4] [nM]
O=C1Nc2cc3c(O[C@@H]4O[C@H](CO)[C@@H](O)[C@H](O)[C@H]4O)cccc3c3c4c(cc1c23)OCO4 | > 10000 |  |  | 
COc1c(O)cc2c3c(cc4ccc(O)cc4c13)NC2=O [ARISTOLACTAM AIIIA] | 140 | 35300 | 1420 | 214
